Measurements published in US12662483B2, “Cocrystalline forms of FGFR3 inhibitors” (Eli Lilly and Company, priority 2022, dated 2026).
Converted amounts (≈) assume the structure as drawn.

How the values were obtained:
[1] = Solid state stability at 40° C./75% RH, caps off; assay type: physicochemical; conditions: 40° C. and 75% relative humidity
[2] = Dynamic vapor sorption (DVS); assay type: physicochemical; conditions: 25° C.
Protocol: Dynamic vapor sorption (DVS) analysis is obtained at 25° C. using a TA Instruments Q5000SA VTI flow moisture balance running TA Thermal Advantage, v5.2.6 and Universal Analysis 2000, v4.5a Software. The equilibrium criterion was <0.01% weight change in 5 minutes for a maximum of 60 minutes. Humidity verification calibration was performed with sodium bromide. The weight calibration was performed with manufacturer-supplied standards.
A prepared sample of the cocrystalline form of Formula I is characterized by dynamic vapor sorption as having a range of water content from about 1% at 0% RH to about 3.2% at 90% RH.

[3] = Solubility in aqueous and biorelevant media (HPLC of supernatant); conditions: for solubility at 24 h: thermodynamic from solid
Description: Samples of Isomer 2 IPMC SDD, Isomer 2 HPMC-AS-M SDD, Isomer 2 PVP-VA SDD, and the cocrystalline form of Formula I or Formula II were centrifuged.

FGFR3 protein = biological target: T1, FGFR3 protein (Homo sapiens, UniProt P22607); test: FGFR3 enzyme assay (KinEASE-TK HTRF); assay type: biochemical; conditions: at Km ATP, 0.25 nM enzyme
T1 construct: purchased Reaction Biology 1068
T1 sequence (P22607 23-806): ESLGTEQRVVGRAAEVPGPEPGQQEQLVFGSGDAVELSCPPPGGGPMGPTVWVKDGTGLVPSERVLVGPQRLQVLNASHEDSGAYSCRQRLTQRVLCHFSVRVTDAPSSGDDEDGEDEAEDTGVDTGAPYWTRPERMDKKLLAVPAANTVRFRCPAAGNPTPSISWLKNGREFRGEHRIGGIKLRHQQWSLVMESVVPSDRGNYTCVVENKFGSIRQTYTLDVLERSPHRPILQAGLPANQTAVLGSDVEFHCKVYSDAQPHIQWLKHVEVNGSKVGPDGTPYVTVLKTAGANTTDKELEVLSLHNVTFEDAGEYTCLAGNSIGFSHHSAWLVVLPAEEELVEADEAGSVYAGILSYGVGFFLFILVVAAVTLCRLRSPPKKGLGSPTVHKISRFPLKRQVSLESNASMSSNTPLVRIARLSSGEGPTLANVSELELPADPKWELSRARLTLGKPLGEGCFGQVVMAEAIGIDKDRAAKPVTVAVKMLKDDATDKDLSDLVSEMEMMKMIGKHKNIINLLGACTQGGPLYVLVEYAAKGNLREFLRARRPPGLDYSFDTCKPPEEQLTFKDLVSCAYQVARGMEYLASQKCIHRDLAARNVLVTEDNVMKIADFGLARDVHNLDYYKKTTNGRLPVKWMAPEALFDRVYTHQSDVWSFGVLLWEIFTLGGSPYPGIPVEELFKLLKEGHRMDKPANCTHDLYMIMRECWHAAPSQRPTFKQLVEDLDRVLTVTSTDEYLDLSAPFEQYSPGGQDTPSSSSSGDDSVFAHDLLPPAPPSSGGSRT
Protocol: Enzyme activity was monitored using the KinEASE™-TK Assay Kit (CisBio, Cat. No. 62TK0PEC) according to the manufacturer's instructions. All assays were performed at the respective KmATP for each kinase in KinEASE™ Kinase Buffer.
Titration of Isomers 1, 2, and A were performed in a half-log manner in 100% dimethyl sulfoxide (DMSO) starting at 1 uM. Prior to the initiation of the reaction by adenosine triphosphate (ATP), FGFR1 protein and Isomers 1, 2, and A were pre-incubated for 15 minutes at room temperature, and FGFR3 protein and Isomers 1, 2, and A were pre-incubated on ice for 15 minutes. Reactions proceeded for 30 min at 30° C. Plates were quenched by the addition of the Anti-TK cryptate antibody/Streptavidin-XL665 mixture.
Ratios were converted to a percent of control (POC) using a ratiometric emission factor. One hundred POC was determined using no test compound, and 0 POC was determined in the presence of 1 uM of an appropriate control inhibitor. A 4-parameter logistic curve was fit to the POC values as a function of the concentration of Isomers 1, 2, and A, and the IC50 value was the point where the best fit curve crossed 50 POC.

[4] = fasted simulated intestinal fluid

For `Cc1c(-c2cc(O[C@H](CO)c3ccc(F)cn3)c3c(Cl)cnn3c2)nnn1C1CCN(C#N)CC1` (single isomer, unassigned; isomer 2) [cocrystalline form of Formula I, 4-[4-[3-Chloro-4-[1-(5-fluoro-2-pyridyl)-2-hydroxy-ethoxy]pyrazolo[1,5-a]pyridin-6-yl]-5-methyl-triazol-1-yl]piperidine-1-carbonitrile, Isomer 2, Hemi-Gallic Acid Cocrystalline Form, Hemihydrate], the “stability relative to SDD formulations of Isomer 2 (IPMC, HPMC-AS-M, PVP-VA)” value [1] was “more stable”, the “water content by dynamic vapor sorption” value ([2]; 0% RH) was “about 1%” and the “water content by dynamic vapor sorption” value ([2]; 90% RH) was “about 3.2%”. For the same molecule, the “solubility relative to Isomer 2 with IPMC SDD” value [3, 4] was “about two to about three times more soluble” and the “solubility relative to freebase form of Isomer 2” value [3, 4] was “about four to about five times more soluble”.
Work on `Cc1c(-c2cc(O[C@H](CO)c3ccc(F)cn3)c3c(Cl)cnn3c2)nnn1C1CCN(C#N)CC1` [Isomer 2, 4-[4-[3-chloro-4-[1-(5-fluoro-2-pyridyl)-2-hydroxy-ethoxy]pyrazolo[1,5-a]pyridin-6-yl]-5-methyl-triazol-1-yl]piperidine-1-carbonitrile, Isomer 2] yielded a solubility at 24 h ([3]; 0.01N aqueous HCl, simulated gastric fluid) of 7 µg/mL (≈ 14.1 µM), a solubility at 24 h ([3]; 0.1N aqueous HCl, simulated gastric fluid) of 12 µg/mL (≈ 24.1 µM) and a solubility at 24 h ([3]; acetate buffer USP, pH 4.5, aqueous buffer) of 6 µg/mL (≈ 12.1 µM). For the same molecule, the solubility at 24 h ([3]; phosphate buffer USP, pH 6, aqueous buffer) was 6 µg/mL (≈ 12.1 µM), the solubility at 24 h ([3]; phosphate buffer USP, pH 7.5, aqueous buffer) was 5 µg/mL (≈ 10.1 µM) and the solubility at 24 h ([3]; simulated gastric fluid) was 47 µg/mL (≈ 94.6 µM). It also gave a solubility at 24 h ([3]; simulated intestinal fluid (fasted), fassif) of 10 µg/mL (≈ 20.1 µM), a solubility at 24 h ([3]; simulated intestinal fluid (fed), fessif) of 38 µg/mL (≈ 76.5 µM) and a solubility at 24 h ([3]; water) of 6 µg/mL (≈ 12.1 µM).
Work on `Cc1c(-c2cc(O[C@H](CO)c3ccccn3)c3c(Cl)cnn3c2)nnn1C1CCN(C#N)CC1` [Isomer A, 4-[4-[3-chloro-4-[2-hydroxy-1-(2-pyridyl)ethoxy]pyrazolo[1,5-a]pyridin-6-yl]-5-methyl-triazol-1-yl]piperidine-1-carbonitrile, Isomer 1] yielded an IC50 (FGFR3 protein) of less than 50 nM.
